Measurements taken from patent US20030181446A1, “Novel N-acylated heterocycles” (Recordati S.A., priority 2001, published 2003).

Assays:
[1] = target: T1, human 5HT1A-serotonergic receptor (Homo sapiens, UniProt P08908); assay: Radioligand binding to recombinant 5-HT1A receptors; details: 1 nM [3H]8-OH-DPAT, membranes of HeLa cells transfected with human 5HT1A receptor; Ki from IC50 by Cheng & Prusoff; read-out: Binding affinity for 5HT1A receptors, Ki
T1 construct: expressed in transfected cells; cell membranes
T1 sequence (P08908 1-422): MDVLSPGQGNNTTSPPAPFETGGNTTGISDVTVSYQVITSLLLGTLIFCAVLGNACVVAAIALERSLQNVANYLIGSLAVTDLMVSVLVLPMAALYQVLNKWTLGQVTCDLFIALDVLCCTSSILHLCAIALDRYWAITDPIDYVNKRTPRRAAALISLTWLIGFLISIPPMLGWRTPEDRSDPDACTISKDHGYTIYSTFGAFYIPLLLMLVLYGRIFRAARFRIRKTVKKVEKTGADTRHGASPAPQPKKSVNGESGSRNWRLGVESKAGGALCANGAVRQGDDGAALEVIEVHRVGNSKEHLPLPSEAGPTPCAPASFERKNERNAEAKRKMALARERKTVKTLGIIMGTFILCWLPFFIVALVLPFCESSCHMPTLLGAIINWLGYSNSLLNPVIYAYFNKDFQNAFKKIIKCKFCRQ
Experimental: Genomic clone G-21 coding for the human 5HT1A-serotonergic receptor was stably transfected in a human cell line (HeLa). HeLa cells were grown as monolayers in Dulbecco's modified Eagle medium (DMEM), containing 10% foetal bovine serum, gentamicin ([…]) and 5% carbon dioxide, at 37° C. The cells were detached from the growth flask at 95% confluence by a cell scraper and were lysed in cold 5 mM Tris and 5 mM EDTA buffer (pH 7.4). The homogenates were centrifuged at 40000×g×20 minutes and the pellets were resuspended in a small volume of cold 5 mM Tris and 5 mM EDTA buffer (pH 7.4) and immediately frozen and stored at −70° C. until use. On the day of experiment, the cell membranes were resuspended in incubation buffer: 50 mM Tris HCl (pH 7.4), 2.5 mM MgCl2, […] (Fargin et al., Nature 335, 358-360, 1988). […] Non-specific binding was determined in the presence of 10 μM 5-HT. […]
The affinity of the tested compounds was evaluated as inhibition of specific binding of the radioligand to 5-HT1A receptors (IC50) by using the non-linear curve-fitting program Allfit (De Lean et al., Am. J. Physiol. 235, E97-E102 (1978). The IC50 value was converted to an affinity constant (Ki) by the equation of Cheng & Prusoff (Cheng Y. C., Prusoff W. H., Biochem. Pharmacol. 22, 3099-3108 (1973)).

[2] = test system: bladder volume capacity (BVC) and micturition pressure (MP); assay: Effect on cystometric parameters in conscious rats after oral administration; format: in vivo, rat; details: 3 mg/kg p.o., 1-5 h after treatment, versus vehicle
Experimental: Male Sprague-Dawley rats [Crl: CD° (SD) BR] of 300-400 g supplied by Charles River Italia were used. The animals were housed with free access to food and water and maintained on a forced 12-hour-light/12-hour-dark cycle at 22-24° C. of temperature, except during the experiment. To quantify urodynamic parameters in conscious rats, cystometrographic studies were performed according to the procedure previously reported (Guarneri et al., Pharmacol. Res. 24: 175, 1991).
Briefly, the rats were anaesthetised by intraperitoneal administration of 3 ml/kg of Equithensin solution (pentobarbital 30 mg/kg and chloral hydrate 125 mg/kg) and placed in a supine position. An approximately-10-mm-long midline incision was made in the shaved and cleaned abdominal wall. The urinary bladder was gently freed from adhering tissues, emptied and then cannulated via an incision in the bladder body, using a polyethylene cannula (0.58-mm internal diameter, 0.96-mm external diameter) which was permanently sutured with silk thread. The cannula was exteriorised through a subcutaneous tunnel in the retroscapular area, where it was connected to a plastic adapter in order to avoid the risk of removal by the animal. For drug testing, the rats were utilised one day after implantation.
On the day of the experiment, the rats were placed in modified Bollman cages, i.e. restraining cages that were large enough to permit the rats to adopt a normal crouched posture, but narrow enough to prevent turning around. […] The intraluminal-pressure signal during infusion of saline into the bladder was continuously recorded on a polygraph (Rectigraph-8K San-ei with BM614/2 amplifier from Biomedica Mangoni) and, from the cystometrogram, two urodynamic parameters were evaluated: bladder volume capacity (BVC) and micturition pressure (MP). […] Basal BVC and MP values were evaluated as mean of the values observed in the cystometrograms recorded in an initial period of 30-60 minutes. […] The bladder infusion restarted and changes in BVC and MP were evaluated from the mean values obtained in the cystometrograms observed during 1, 2, 3, 4 and 5 hours after treatment. […]
All data were expressed as mean±standard error. Time-course data were analysed by S.A.S./STAT software, version 6.12. The difference between vehicle and active-treatment effect was evaluated by: General Linear Model Procedure—Repeated Measures Analysis of Variance: Univariate test of Hypotheses for within Subject Effects—Analysis of Variance of Contrast Variables. […]

[3] = test system: rhythmic bladder-voiding contractions; assay: Effects on rhythmic bladder-voiding contractions induced by bladder filling in anaesthetised rats; format: in vivo, rat; details: intravenous administration
Experimental: Female Sprague-Dawley rats weighing 225-275 g (Crl: CDo Br, Charles River Italia) were used. The animals were housed with free access to food and water and maintained on a forced 12-hour alternating light-dark cycle at 22-24° C. for at least one week, except during the experiment. The activity on rhythmic bladder voiding contractions was evaluated according to the method of Dray (Dray J., Pharmacol. Methods, 13:157, 1985), with some modifications as in Guarneri (Guarneri, Pharmacol. Res. 27:173, 1993). Briefly, the rats were anaesthetised by subcutaneous injection of 1.25 g/kg (5 ml/kg) urethane, after which the urinary bladder was catheterised via the urethra using PE 50 polyethylene tubing filled with physiological saline. […]
From the cystometrogram, the number of contractions recorded 15 minutes before (basal values) and after treatment, as well as the mean amplitude of these contractions (mean height of the peaks in mmHg), was evaluated.
Since most compounds produced an effect that was relatively rapid in onset and led to a complete cessation of bladder contractions, bioactivity was conveniently estimated by measuring the duration of bladder quiescence (i.e. the length of the time during which no contractions occurred). The number of tested animals showing a reduction in the number of contractions higher than 30% of that observed in the basal period was recorded too. […]

Compound	Ki [1] [nM]	bladder volume capacity (BVC) change (in words) [2]	micturition pressure (MP) change (in words) [2]	cessation of bladder contractions (in words) [3]	effect on amplitude of the contractions (in words) [3]
1-(2-Ethylbutanoyl-1,2,3,4-tetrahydroquinoline-2-ylmethyl)-4-(4-indolyl)-piperazine [Example 24A]	12.9	–	–	–	–
O=C(C1CCCCC1)N1c2ccccc2CCC1CN1CCN(c2cccc3[nH]ccc23)CC1 (racemic) [Example 1, 1-(1-Cyclohexanecarbonyl-1,2,3,4-tetrahydroquinoline-2-ylmethyl)-4-(4-indolyl)piperazine]	–	effective in increasing the bladder volume capacity	without significant effects on micturition pressure	–	–
CC(C)Oc1cc(Cl)ccc1N1CCN(CC2CCc3ccccc3N2C(=O)C2CCCCC2)CC1 (centres unmarked) [Example 60A]	10.1	–	–	–	–
CCN(CC)CC#CCOC(=O)C(O)(c1ccccc1)C1CCCCC1 (centres unmarked) [Oxybutynin, oxybutynin]	–	slight, not-significant increase of BVC	greatly reduced the micturition pressure values	does not cause cessation of bladder contractions	only decreased the amplitude of the contractions in a dose-related manner
